≈ marks a conversion by molar mass, not a printed value.

Consider three molecules from US20050239738A1, “Genetic inhibition of epidermal growth factor receptor function and carcinoma cell radiosensitization” (priority 2000, published 2005).

Holding throughout (type): cell-based, human
For assay [1], the system named is EGFR-CD533 expression. Briefly: Doxycycline induction of EGFR-CD533 mRNA and protein (RNase protection, Northern, 35S-Met labeling). From the text: The kinetics of EGFR-CD533 induction and its decay after Dox removal were monitored by metabolic labeling with ^35S-Met as described in the text.
The test system of assay [2] is MAPK. Briefly: MAPK immune complex kinase assay. The protocol:
(§1) Dox at 1 μg/ml was added 48 h prior to radiation exposure and cell harvesting with a medium change to RPMI/0.5% FBS with or without Dox for the final 24 h. This medium was replaced by RPMI/0.5% FBS 2 h prior to treatment.
(§2) Immunoprecipitation and Western analysis. For immunochemical analyses, cells frozen at −20° C. were lysed in ice-cold lysis buffer, 25 mM β-glycerophosphate, pH 7.4, 25 mM Tris, pH 7.4, 10% (v/v) glycerol, 1.5 mM EGTA, 0.5 mM EDTA, 1% Triton X-100, 1 mM Na-orthovanadate, 1 mM Na-pyrophosphate, 10 μg/ml aprotinin, 10 μg/ml leupeptin, 1 μm benzamidine, 100 μg/ml PMSF. […] Lysates were incubated with Ab at 4° C. for 3 h, the agarose-Ab immunoprecipitates were washed twice in lysis buffer, once in lysis buffer containing 0.1% Triton X-100, and once in 1× kinase buffer, 25 mM β-glycerophosphate, pH 7.4, 15 mm MgCl2. For Western blot analyses, equal amounts of cellular protein were separated by SDS-PAGE, electroblotted to nitrocellulose, probed with specific Abs against c-Jun protein and c-Jun 0phosphorylated at Ser-63, followed by chemilumescence detection. Expression of Tam 67 in MDA-TR15-EGFR-CD533 cells infected with recombinant adenovirus was determined by Western analysis using a c-Jun Ab specific for the COOH-terminus.
(§3) Immune complex kinase assays.
(§4) Aliquots of the assay mixture were placed on P81 paper and non-specific binding of [^32P]-γ-ATP removed by extensive washing in 180 mM phosphoric acid. Incorporation of ^32P into bound MBP substrate was measured by liquid scintillation spectroscopy (Beckman Instruments Inc, Schaumburg, Ill., USA).

Assay [3] relates to JNK1. Briefly: JNK1 immune complex kinase assay. The procedure:
as §2, §3, §4

Assay [4] relates to MDA-TR15-EGFR-CD533 cells. Briefly: TUNEL assay for apoptosis. The procedure:
TUNEL assay for apoptosis. Cells were placed at a density of 2×10^4 cells into dual well slides and allowed to adhere overnight in RPMI/5FCS. Cells were then exposed, prior to irradiation, for 48 h to Dox or control solute for induction of EGFR-CD533. PD98059 at a final concentration of 10 μM was added 2 h prior to irradiation at 2 Gy. Cells were infected with recombinant Ad-TAM67 for expression of Tam67 for 48 h prior to irradiation. […] Slides were stored at −20° C. until examination by fluorescence microscopy using a fluorescein filter.

For assay [5], the system named is c-Jun. Kind of assay: Western blot of c-Jun protein and Ser-63 phosphorylated c-Jun. The protocol:
Immunoprecipitation and Western analysis. For immunochemical analyses, cells frozen at −20° C. were lysed in ice-cold lysis buffer, 25 mM β-glycerophosphate, pH 7.4, 25 mM Tris, pH 7.4, 10% (v/v) glycerol, 1.5 mM EGTA, 0.5 mM EDTA, 1% Triton X-100, 1 mM Na-orthovanadate, 1 mM Na-pyrophosphate, 10 μg/ml aprotinin, 10 μg/ml leupeptin, 1 μm benzamidine, 100 μg/ml PMSF. Insoluble material was removed by centrifugation at 14 000 g for 10 min, and the clarified protein lysates were divided equally for immunoprecipitation with antibodies against JNKI and MAPK using established techniques (Boulton et al., 1990). Lysates were incubated with Ab at 4° C. for 3 h, the agarose-Ab immunoprecipitates were washed twice in lysis buffer, once in lysis buffer containing 0.1% Triton X-100, and once in 1× kinase buffer, 25 mM β-glycerophosphate, pH 7.4, 15 mm MgCl2. For Western blot analyses, equal amounts of cellular protein were separated by SDS-PAGE, electroblotted to nitrocellulose, probed with specific Abs against c-Jun protein and c-Jun 0phosphorylated at Ser-63, followed by chemilumescence detection. Expression of Tam 67 in MDA-TR15-EGFR-CD533 cells infected with recombinant adenovirus was determined by Western analysis using a c-Jun Ab specific for the COOH-terminus.

Assay [6] concerns MDA-TR15-EGFR-CD533 cells. Kind of assay: Repeated radiation exposure (5 x 2 Gy) MTT cell growth assay. The procedure:
MDA-TR15-EGFR-CD533 cells were seeded in RPMI/5% FBS at 1000 or 2000 cells/well in 96-well tissue culture plates for control and radiation experiments, respectively. After cell attachment overnight, 50% of the cultures were exposed to Dox at 1 μg/ml. Within 24 h of Dox exposure, drug-exposed and control cultures were irradiated once-daily with 2 Gy for 5 consecutive days.
Growth rate analysis. For irradiation and control conditions, 1000 and 500 cells per well of 24-well plates were seeded, respectively. Cells were maintained in RPMI/5FCS without media change throughout the period of the experiment. After 24 h of seeding, 50% of the plates were treated with 10 μM PD98059 for 2 h while negative controls were exposed to equivalent DMSO concentrations of 1 μl/ml in RPMI/5FCS. This was followed by 2 Gy daily radiation exposures for 5 consecutive days; control cells were sham irradiated. […] Growth rates were quantified relative to absorbance at 540 nm on day 1.

In assay [7] the test system is EGFR-WT. Briefly: EGFR-WT Tyr autophosphorylation, immunoprecipitation/Western blot. The settings on record: 2 ng/ml EGF, MDA-TR15-EGFR-CD533 cells without Dox. The procedure:
as §1

The mark [8] stands for this setting: MCF-TR5-EGFR-CD533 cells, 48 h Dox exposure.
Where [9] appears, read: MDA-TR15-EGFR-CD533 cells, 48 h Dox exposure.
Setting [10] is: parental MDA-TR15 cells, Dox 48 h.
Where [11] appears, read: MDA-TR15-EGFR-CD533 cells, basal activity before irradiation, after pretreatment.

For `C[C@H]1c2cccc(O)c2C(=O)C2=C(O)[C@]3(O)C(=O)C(C(N)=O)=C(O)[C@@H](N(C)C)[C@@H]3[C@@H](O)[C@@H]21` [Dox, doxycycline], the EGFR-CD533 induced in assay [1] (1.0 μg/ml Dox, at 24 h, 35S-Met incorporation, MDA-TR15-EGFR-CD533 cells) is given as over 90%. Also, the EC50 in assay [1] (Homo sapiens, MDA-TR15-EGFR-CD533 cells, 48 h exposure, 0.01-1.0 μg/ml, read-out: Dox concentration giving half maximal response of EGFR-CD533 induction) was 0.1 µg/mL (≈ 0.225 µM). In assay [1] (setting [8]), the “increase in EGFR-CD533 mRNA levels” value is 5 fold and the “induction of the 110 kD EGFR-CD533 truncated receptor” value was “greater than 20 fold”. For the same molecule, in assay [1] (setting [9]), the “increase in EGFR-CD533 mRNA levels” value was “greater than 30 fold” and the “induction of EGFR-CD533 at the protein level” value is given as “greater than 50 fold”. Moreover, the MAPK activity in assay [2] (setting [10]) turned out to be 16000±1600 c.p.m. In assay [3] (setting [10]), the “JNK1 activity at time=0” value came to 3500±300 c.p.m.
With `COc1cccc(-c2cc(=O)c3ccccc3o2)c1N` [PD98059], the “apoptosis rate after irradiation” value in assay [4] (TUNEL 24 h after single 2 Gy) is 6.3 (±0.1) %. Besides, in assay [4] (TUNEL, without irradiation), the basal apoptosis rate was 3.7 (±0.1) %. Also, the “increase in basal apoptosis rate” value in assay [4] (TUNEL, without irradiation, relative to control) is given as about 20%. The “c-Jun protein levels relative to untreated cells” value in assay [5] (10 μM PD98059 2 h) is recorded as “more than twofold reduction”. For the same molecule, in assay [5] (10 μM PD98059 pretreatment, 10 min after 2 Gy), the “increase in c-Jun Ser-63 phosphorylation relative to c-Jun protein level” value is 41 fold. Also, the “stimulation of c-Jun phosphorylation under MEK1/2 inhibition compared to radiation alone” value in assay [5] (PD98059 + 2 Gy, sustained up to 60 min) was “fivefold greater”. In assay [6] (5 daily 2 Gy exposures, MTT, day 7 of growth period), the “lower cell numbers on day 7 relative to irradiated control cells” value is on record as 5.0 (±0.03) fold. Moreover, the “inhibition of cell growth / decrease in cell numbers without irradiation” value in assay [6] (un-irradiated, day 7, MTT) is given as 25%. Moreover, the “inhibition of radiation-induced MAPK activation” value in assay [2] (10 μm PD98059 pretreatment, 2 Gy, MDA-TR15-EGFR-CD533 cells) is over 70%. In assay [2] (setting [11]), the “MAPK activity at time=0” value worked out at 16900±575 c.p.m. The “transient activation of JNK1 without irradiation” value in assay [3] (10 μM PD98059, between 5 and 25 min, no radiation) is 1.35 (±0.02) fold. The “radiation-induced immediate JNK1 activation” value in assay [3] (2 Gy, early time points (within 10 min), MDA-TR15-EGFR-CD533 cells) was 3.9 (±0.1) fold. In addition, the “JNK1 activity at time=0” value in assay [3] (setting [11]) was determined as 3100±200 c.p.m.
Take “EGF: epidermal growth factor, natural ligand of EGFR”: in assay [7], the “activation of EGFR-WT Tyr phosphorylation” value came out at 9.8 fold.
